The text below walks through data of PubChem BioAssay (NCI).

Test systems include TK-10 renal; RPMI-8226 leukemia; UACC-257 melanoma; T-47D breast; MCF7 breast; U251 CNS; M14 melanoma; COLO 205 colon; UO-31 renal; NCI-H460 lung; K-562 leukemia; OVCAR-8 ovarian; ACHN renal; HCC-2998 colon; HCT-15 colon; SNB-75 CNS; SK-OV-3 ovarian; SW-620 colon.
Assay in all cases: DTP human tumour cell line panel, 48 h

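Following 48 hours of exposure in 96-well plates, responses at five concentrations were used to interpolate endpoints linearly. The concentration for 50% growth inhibition is given as GI50. Definition used: TGI = concentration required for complete inhibition of growth.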

For `CCCN(CCc1ccc(-c2ccccc2)cc1)CCc1ccc2n[nH]nc2c1`, the TGI (as a rule, the concentration giving total growth inhibition) is 25.7 µM in the experiment with TK-10 renal; 28.1 µM in the experiment on RPMI-8226 leukemia; 17.1 µM in the experiment on UACC-257 melanoma; 19.2 µM with T-47D breast; greater than 51.2 µM with MCF7 breast; 37.6 µM with U251 CNS. Besides, the TGI in the experiment on M14 melanoma is 25.4 µM; in the experiment on COLO 205 colon it was 9.07 µM; in the experiment on UO-31 renal it was 22.4 µM; with NCI-H460 lung it was 22.1 µM; with K-562 leukemia it was 18.4 µM; in the experiment with OVCAR-8 ovarian, 36.3 µM. Further, the TGI in the experiment with ACHN renal came to 25.4 µM; in the experiment with HCC-2998 colon, 19.7 µM; in the experiment on HCT-15 colon it was 21.4 µM; in the experiment on SNB-75 CNS it was 30.6 µM; in the experiment with SK-OV-3 ovarian, 28.5 µM; in the experiment on SW-620 colon, 36.3 µM.
Turning to `Cn1c(-c2cccs2)cc(-c2cccs2)c1-c1cccs1`, the total growth inhibition concentration (TGI) was greater than 100 µM in the experiment with TK-10 renal; greater than 100 µM in the experiment on RPMI-8226 leukemia; greater than 100 µM in the experiment on UACC-257 melanoma; greater than 51.8 µM in the experiment with T-47D breast; greater than 100 µM with MCF7 breast; greater than 100 µM in the experiment on U251 CNS. Also, the TGI with M14 melanoma was greater than 100 µM; in the experiment on COLO 205 colon, 34.1 µM; in the experiment on UO-31 renal, greater than 100 µM; with NCI-H460 lung, greater than 100 µM; with K-562 leukemia, greater than 100 µM; in the experiment with OVCAR-8 ovarian, greater than 100 µM. Moreover, the TGI in the experiment on ACHN renal, in the experiment with HCC-2998 colon, in the experiment with HCT-15 colon, in the experiment with SNB-75 CNS, in the experiment on SK-OV-3 ovarian and in the experiment on SW-620 colon was greater than 100 µM in each case.
Take `Nc1cc(Cl)cc2cc(Cl)cnc12`: the TGI in the experiment with TK-10 renal, in the experiment on RPMI-8226 leukemia, in the experiment on UACC-257 melanoma, with T-47D breast, in the experiment on MCF7 breast and with U251 CNS was greater than 100 µM in each case. Besides, the TGI in the experiment with M14 melanoma, in the experiment with COLO 205 colon, with UO-31 renal, in the experiment on NCI-H460 lung, with K-562 leukemia and in the experiment with OVCAR-8 ovarian was greater than 100 µM in each case. Moreover, the TGI with ACHN renal, with HCC-2998 colon, in the experiment on HCT-15 colon, in the experiment on SNB-75 CNS, in the experiment on SK-OV-3 ovarian and with SW-620 colon was greater than 100 µM each time.
For the compound `CCOC(=O)CC[C@H](N)C(=O)N[C@@H](Cc1ccc(N(CCCl)CCCl)cc1)C(=O)OCC`, the TGI with TK-10 renal stood at 4.26 µM; in the experiment with RPMI-8226 leukemia it was 28.4 µM; in the experiment on UACC-257 melanoma, 5.09 µM; with T-47D breast, 8.49 µM; in the experiment with MCF7 breast it was 15.5 µM; with U251 CNS it was 7.39 µM. The TGI was 1.59 µM in the experiment on M14 melanoma; 2.3 µM in the experiment with COLO 205 colon; 3.44 µM with UO-31 renal; 2.48 µM with NCI-H460 lung; greater than 33 µM in the experiment with K-562 leukemia; 1.99 µM in the experiment with OVCAR-8 ovarian. The TGI in the experiment with ACHN renal turned out to be 1.72 µM; in the experiment with HCC-2998 colon, 2.59 µM; in the experiment on HCT-15 colon it was 3.86 µM; in the experiment on SNB-75 CNS, 4.44 µM; in the experiment with SK-OV-3 ovarian, 4.99 µM; in the experiment on SW-620 colon, 5.87 µM. In the experiment with OVCAR-8 ovarian, the GI50 (usually the concentration giving 50% growth inhibition) is 0.564 µM.
On to `O=C1c2ccccc2-c2nnc(-c3ccc([N+](=O)[O-])cc3)cc21`, for which the TGI in the experiment on TK-10 renal, with RPMI-8226 leukemia, in the experiment on UACC-257 melanoma, in the experiment with T-47D breast, in the experiment with MCF7 breast and with U251 CNS was greater than 10 µM throughout. Moreover, the TGI in the experiment on M14 melanoma, in the experiment on COLO 205 colon, in the experiment on UO-31 renal, in the experiment with NCI-H460 lung, with K-562 leukemia and in the experiment on OVCAR-8 ovarian was greater than 10 µM each time. Moreover, the TGI in the experiment with ACHN renal, in the experiment on HCC-2998 colon, with HCT-15 colon, with SNB-75 CNS, with SK-OV-3 ovarian and with SW-620 colon was greater than 10 µM each time.
Take `CC1=NN(c2cccc(S(=O)(=O)O)c2)C2(C1)C(Cl)C(=O)N2c1nc2ccccc2s1` (stereo not given): the TGI in the experiment with TK-10 renal was 27.3 µM; with RPMI-8226 leukemia, 4.47 µM; in the experiment with UACC-257 melanoma, 28.3 µM; in the experiment with T-47D breast, 40.4 µM; in the experiment on MCF7 breast it was 25 µM; in the experiment on U251 CNS, 16.3 µM. Also, the TGI is 24.6 µM with M14 melanoma; 24.8 µM with COLO 205 colon; 8.27 µM in the experiment with UO-31 renal; 26.3 µM with NCI-H460 lung; greater than 41.4 µM in the experiment with K-562 leukemia; 19.1 µM in the experiment on OVCAR-8 ovarian. The TGI turned out to be 18.4 µM with ACHN renal; 28.5 µM in the experiment on HCC-2998 colon; 17.8 µM in the experiment on HCT-15 colon; 13.1 µM with SNB-75 CNS; 24.2 µM in the experiment with SK-OV-3 ovarian; 21.1 µM in the experiment on SW-620 colon.
For the compound `CC(C)C[C@H]1[C@@H](OCc2ccccc2)COS(=O)(=O)N1[C@H](C)c1ccccc1`, the TGI with TK-10 renal was greater than 100 µM; with RPMI-8226 leukemia it was greater than 74.7 µM; in the experiment with UACC-257 melanoma, greater than 100 µM; in the experiment with T-47D breast, 39.7 µM; in the experiment with MCF7 breast, greater than 100 µM; in the experiment on U251 CNS, greater than 67.7 µM. For the same compound, the TGI with M14 melanoma, in the experiment with COLO 205 colon, in the experiment with UO-31 renal, in the experiment with NCI-H460 lung, in the experiment with K-562 leukemia and with OVCAR-8 ovarian was greater than 100 µM throughout. For the same compound, the TGI in the experiment on ACHN renal, with HCC-2998 colon, in the experiment on HCT-15 colon, with SNB-75 CNS, with SK-OV-3 ovarian and with SW-620 colon was greater than 100 µM throughout.
In the case of `Cc1sc2nc(N(C)C)oc(=O)c2c1C`, the TGI in the experiment with TK-10 renal, in the experiment on RPMI-8226 leukemia, with UACC-257 melanoma, with T-47D breast, with MCF7 breast and with U251 CNS was greater than 100 µM each time. In addition, the TGI with M14 melanoma, in the experiment on COLO 205 colon, in the experiment with UO-31 renal, in the experiment with NCI-H460 lung, in the experiment with K-562 leukemia and with OVCAR-8 ovarian was greater than 100 µM each time. In addition, the TGI with ACHN renal, with HCC-2998 colon, in the experiment on HCT-15 colon, with SNB-75 CNS, with SK-OV-3 ovarian and in the experiment with SW-620 colon was greater than 100 µM each time.
